According to ChEMBL document CHEMBL5576124, “Discovery of an Exceptionally Orally Bioavailable and Potent HPK1 PROTAC with Enhancement of Antitumor Efficacy of Anti-PD-L1 Therapy” (J Med Chem, 2024):
Active and inactive are the calls of the source. The rule behind the calls is not given here.

How the values were obtained:
[1] = MRT in Sprague-Dawley rat at 10 mg/kg,po measured upto 24 hrs by LC-MS analysis; format: ADME, organism-based; details: in vivo
[2] = Half life in Sprague-Dawley rat at 10 mg/kg,po measured upto 24 hrs by LC-MS analysis; format: ADME, organism-based; details: in vivo
[3] = Tmax in Sprague-Dawley rat at 10 mg/kg,po measured upto 24 hrs by LC-MS analysis; format: ADME, organism-based; details: in vivo
[4] = molecular target: T1, Protein cereblon/Mitogen-activated protein kinase kinase kinase kinase 1 (Homo sapiens, UniProt Q92918+Q96SW2); assay: PROTAC activity at CRBN/HPK1 in human Jurkat cells assessed as degradation of HPK1 protein incubated for 24 hrs by Western blotting analysis; format: cell-based
Target sequence in this assay (Q92918 whole entry): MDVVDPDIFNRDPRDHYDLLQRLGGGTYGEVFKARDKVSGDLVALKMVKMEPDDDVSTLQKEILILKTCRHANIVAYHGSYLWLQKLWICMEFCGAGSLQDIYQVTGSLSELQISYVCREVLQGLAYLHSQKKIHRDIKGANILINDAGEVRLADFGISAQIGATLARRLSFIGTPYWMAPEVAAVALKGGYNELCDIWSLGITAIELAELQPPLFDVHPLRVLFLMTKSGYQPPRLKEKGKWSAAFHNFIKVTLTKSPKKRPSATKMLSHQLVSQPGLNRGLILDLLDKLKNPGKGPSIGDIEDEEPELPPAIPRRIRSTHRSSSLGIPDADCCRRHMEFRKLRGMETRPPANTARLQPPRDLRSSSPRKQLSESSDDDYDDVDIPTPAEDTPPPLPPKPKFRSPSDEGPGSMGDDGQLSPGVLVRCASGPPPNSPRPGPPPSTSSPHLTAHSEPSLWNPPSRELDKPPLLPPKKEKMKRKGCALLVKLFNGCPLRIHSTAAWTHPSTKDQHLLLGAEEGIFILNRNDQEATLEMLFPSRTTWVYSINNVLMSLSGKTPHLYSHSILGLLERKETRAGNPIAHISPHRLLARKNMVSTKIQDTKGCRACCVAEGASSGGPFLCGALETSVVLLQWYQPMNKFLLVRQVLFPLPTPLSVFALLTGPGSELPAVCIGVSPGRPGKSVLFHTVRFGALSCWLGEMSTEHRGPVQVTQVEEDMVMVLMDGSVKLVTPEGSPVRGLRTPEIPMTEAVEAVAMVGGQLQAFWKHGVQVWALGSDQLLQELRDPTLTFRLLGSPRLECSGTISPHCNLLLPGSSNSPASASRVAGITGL
Target sequence in this assay (Q96SW2 whole entry): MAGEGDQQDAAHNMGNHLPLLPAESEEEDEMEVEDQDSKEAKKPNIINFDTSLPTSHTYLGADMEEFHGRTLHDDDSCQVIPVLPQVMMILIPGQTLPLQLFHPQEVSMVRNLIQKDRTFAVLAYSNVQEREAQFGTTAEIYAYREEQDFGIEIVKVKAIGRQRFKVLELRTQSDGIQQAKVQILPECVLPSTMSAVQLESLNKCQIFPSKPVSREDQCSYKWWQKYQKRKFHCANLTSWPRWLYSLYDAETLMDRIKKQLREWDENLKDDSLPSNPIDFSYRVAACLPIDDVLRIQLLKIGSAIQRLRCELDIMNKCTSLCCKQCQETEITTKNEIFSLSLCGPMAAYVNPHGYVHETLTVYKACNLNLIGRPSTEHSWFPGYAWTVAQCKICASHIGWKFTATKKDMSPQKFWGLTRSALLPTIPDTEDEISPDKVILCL

[5] = Cmax in Sprague-Dawley rat at 10 mg/kg,po measured upto 24 hrs by LC-MS analysis; format: ADME, organism-based; details: in vivo
[6] = AUC (0 to t) in Sprague-Dawley rat at 10 mg/kg,po measured upto 24 hrs by LC-MS analysis; format: ADME, organism-based; details: in vivo
[7] = molecular target: T1, Protein cereblon/Mitogen-activated protein kinase kinase kinase kinase 1; assay: PROTAC activity at CRBN/HPK1 in human Jurkat cells assessed as maximal degradation of HPK1 protein incubated for 24 hrs by Western blotting analysis relative to control; format: cell-based
Target sequence in this assay (Q92918 whole entry, looked up): as the sequence (Q92918 whole entry) above
Target sequence in this assay (Q96SW2 whole entry, looked up): as the sequence (Q96SW2 whole entry) above

[8] = molecular target: T1, Protein cereblon/Mitogen-activated protein kinase kinase kinase kinase 1; assay: PROTAC activity at CRBN/HPK1 in human Jurkat cells assessed as maximal degradation of HPK1 protein incubated for 24 hrs by Nano-Glo luminescence assay relative to control; format: cell-based
Target sequence in this assay (Q92918 whole entry, looked up): as the sequence (Q92918 whole entry) above
Target sequence in this assay (Q96SW2 whole entry, looked up): as the sequence (Q96SW2 whole entry) above

[9] = test system: CT26; assay: Antitumor activity against mouse CT26 cells implanted BALB/c mouse model assessed as tumor growth inhibition at 25 mg/kg,po administrated once daily for 15 days relative to control; format: functional; details: CT26, 360 h, time 15 day, read-out: TGI
[10] = test system: Jurkat; assay: Antiproliferative activity against human Jurkat cells assessed as inhibition of cell growth at 10 uM incubated for 3 days by CCK-8 assay; format: functional, cell-based; details: time 3.0 day
[11] = test system: T-cell line; assay: Immunostimulatory activity in human T cell assessed as increase in IL-2 secretion at 10 uM relative to control; format: functional
[12] = test system: Jurkat; assay: Antiproliferative activity against human Jurkat cells assessed as inhibition of cell growth at 2 uM incubated for 3 days by CCK-8 assay; format: functional, cell-based; details: time 3.0 day
[13] = molecular target: Mitogen-activated protein kinase kinase kinase kinase 1 (Homo sapiens, UniProt Q92918); assay: Inhibition of HPK1 (unknown origin)
Mitogen-activated protein kinase kinase kinase kinase 1, sequence (Q92918 whole entry): as the sequence (Q92918 whole entry) above

Cc1cc(-c2c[nH]c3ncc(-c4ccc(C5CCN(C(=O)CCOCCOCCOc6cccc7c6C(=O)N(C6CCC(=O)NC6=O)C7=O)CC5)cc4)nc23)ccc1C(=O)N(C)C (stereo not drawn)
MRT [1]: 3.6 h
half-life [2]: 2.3 h
Tmax [3]: 0.5 h
DC50 [4]: 245 nM
Cmax [5]: 118 ng/mL
AUC(0-t) at 24 h [6]: 187 ng·h/mL
Emax [7]: 56.6%

Cc1cc(-c2c[nH]c3ncc(-c4ccc(C5CCN(C6CN(C(=O)CNc7cccc8c7C(=O)N(C7CCC(=O)NC7=O)C8=O)C6)CC5)cc4)nc23)ccc1C(=O)N(C)C (stereo not drawn)
DC50 [4]: > 10000 nM
Emax [7]: 22.7%

Cc1cc(-c2c[nH]c3ncc(-c4ccc(C5CCN(CC6CCN(c7ccc8c(c7)C(=O)N(C7CCC(=O)NC7=O)C8=O)C6)CC5)cc4)nc23)ccc1C(=O)N(C)C (stereo not drawn)
DC50 [4]: 78.8 nM
Emax [7]: 84.1%

Cc1cc(-c2c[nH]c3ncc(-c4ccc(N5CCN(C6CN(c7ccc8c(c7)C(=O)N(C7CCC(=O)NC7=O)C8=O)C6)CC5)cc4)nc23)ccc1C(=O)N(C)C (stereo not drawn)
DC50 [4]: 28.2 nM
Emax [7]: 68.3%

Cc1cc(-c2c[nH]c3ncc(-c4ccc(C5CCN(CC6CCN(C7CN(c8ccc9c(c8)C(=O)N(C8CCC(=O)NC8=O)C9=O)C7)CC6)CC5)cc4)nc23)ccc1C(=O)N(C)C (stereo not drawn)
DC50 [4]: > 10000 nM
Emax [7]: 38%

Cc1cc(-c2c[nH]c3ncc(-c4ccc(C5CCN(C6CN(C(=O)C7CCN(c8ccc(NC9CCC(=O)NC9=O)cc8)CC7)C6)CC5)cc4)nc23)ccc1C(=O)N(C)C (stereo not drawn)
DC50 [4]: > 10000 nM
Emax [7]: 41.4%

Cc1cc(-c2c[nH]c3ncc(-c4ccc(N5CCN(CC6CN(c7ccc8c(c7)C(=O)N(C7CCC(=O)NC7=O)C8=O)C6)CC5)cc4)nc23)ccc1C(=O)N(C)C (stereo not drawn)
MRT [1]: 6.84 h
half-life [2]: 4.86 h
Tmax [3]: 3 h
DC50 [4]: 134 nM
Cmax [5]: 1500 ng/mL
AUC(0-t) at 24 h [6]: 16000 ng·h/mL
Emax [7]: 94.6%

Cc1cc(-c2c[nH]c3ncc(-c4ccc(C5CCN(C6CN(c7cccc8c7C(=O)N(C7CCC(=O)NC7=O)C8=O)C6)CC5)cc4)nc23)ccc1C(=O)N(C)C (stereo not drawn)
DC50 [4]: 152 nM
Emax [7]: 64.9%

Cc1cc(-c2c[nH]c3ncc(-c4ccc(C5CCN(CC6CCN(c7ccc8c(c7)C(=O)N(C7CCC(=O)NC7=O)C8=O)CC6)CC5)cc4)nc23)ccc1C(=O)N(C)C (stereo not drawn)
DC50 [4]: 420 nM
Emax [7]: 84.1%

Cc1cc(-c2c[nH]c3ncc(-c4ccc(N5CCN(c6ccc7c(c6)C(=O)N(C6CCC(=O)NC6=O)C7=O)CC5)cc4)nc23)ccc1C(=O)N(C)C (stereo not drawn)
DC50 [4]: > 10000 nM
Emax [7]: 22.3%

Cc1cc(-c2c[nH]c3ncc(-c4ccc(N5CCN(c6cccc7c6C(=O)N(C6CCC(=O)NC6=O)C7=O)CC5)cc4)nc23)ccc1C(=O)N(C)C (stereo not drawn)
MRT [1]: 6.8 h
half-life [2]: 4.4 h
Tmax [3]: 1 h
DC50 [4]: > 10000 nM
Cmax [5]: 602 ng/mL
AUC(0-t) at 24 h [6]: 4470 ng·h/mL
Emax [7]: 37.9%

Cc1cc(-c2c[nH]c3ncc(-c4ccc(N5CCN(CC6CCN(c7ccc8c(c7)C(=O)N(C7CCC(=O)NC7=O)C8=O)CC6)CC5)cc4)nc23)ccc1C(=O)N(C)C (stereo not drawn)
MRT [1]: 24.6 h
half-life [2]: 16.7 h
Tmax [3]: 4 h
DC50 [4]: 33.9 nM
Cmax [5]: 636 ng/mL
AUC(0-t) at 24 h [6]: 9970 ng·h/mL
Emax [7]: 59.9%

Cc1cc(-c2c[nH]c3ncc(-c4ccc(C5CCN(C(=O)C6CCN(c7ccc8c(c7)C(=O)N(C7CCC(=O)NC7=O)C8=O)CC6)CC5)cc4)nc23)ccc1C(=O)N(C)C (stereo not drawn)
DC50 [4]: 1750 nM
Emax [7]: 63.6%

Cc1cc(-c2c[nH]c3ncc(-c4ccc(C5CCN(C6CCN(c7ccc8c(c7)C(=O)N(C7CCC(=O)NC7=O)C8=O)C6)CC5)cc4)nc23)ccc1C(=O)N(C)C (stereo not drawn)
DC50 [4]: 94 nM
Emax [7]: 76.6%

Cc1cc(-c2c[nH]c3ncc(-c4ccc(C5CCN(C(=O)CCNc6cccc7c6C(=O)N(C6CCC(=O)NC6=O)C7=O)CC5)cc4)nc23)ccc1C(=O)N(C)C (stereo not drawn)
DC50 [4]: 962 nM
Emax [7]: 63.6%

Cc1cc(-c2c[nH]c3ncc(-c4ccc(C5CCN(C6CN(CC7CCN(c8ccc(N9CCC(=O)NC9=O)c(C)c8)CC7)C6)CC5)cc4)nc23)ccc1C(=O)N(C)C
DC50 [4]: 127 nM
Emax [7]: 79.3%

Cc1cc(F)c(Nc2nc(-c3ccc4c(c3)N(C3CC(N5CCCCC5)C3)C(=O)C43CCN(CCOCCOCCOCCOCCOCCOCCOCCNc4cccc5c4C(=O)N(C4CCC(=O)NC4=O)C5=O)CC3)cc3ncn(C(C)C)c23)cc1C(=O)NC(C)C (stereo not drawn)
Emax [8]: > 65%

Cc1cc(-c2c[nH]c3ncc(-c4ccc(C5CCN(c6cccc7c6C(=O)N(C6CCC(=O)NC6=O)C7=O)CC5)cc4)nc23)ccc1C(=O)N(C)C (stereo not drawn)
DC50 [4]: > 10000 nM
Emax [7]: 2.8%

Cc1cc(-c2c[nH]c3ncc(-c4ccc(N5CCN(C6CCN(c7ccc8c(c7)C(=O)N(C7CCC(=O)NC7=O)C8=O)CC6)CC5)cc4)nc23)ccc1C(=O)N(C)C (stereo not drawn)
DC50 [4]: 99.2 nM
Emax [7]: 56.1%

Cc1cc(-c2c[nH]c3ncc(-c4ccc(C5CCN(C6CN(c7cc8c(cc7F)C(=O)N(C7CCC(=O)NC7=O)C8=O)C6)CC5)cc4)nc23)ccc1C(=O)N(C)C (stereo not drawn)
DC50 [4]: 78.8 nM
Emax [7]: 84.2%

Cc1cc(-c2c[nH]c3ncc(-c4ccc(N5CCN(CCC6CCN(c7ccc8c(c7)C(=O)N(C7CCC(=O)NC7=O)C8=O)CC6)CC5)cc4)nc23)ccc1C(=O)N(C)C (stereo not drawn)
DC50 [4]: > 10000 nM
Emax [7]: 48.2%

Cc1cc(-c2c[nH]c3ncc(-c4ccc(C5CCN(C6CN(C(=O)C7CCN(c8ccc9c(c8)C(=O)N(C8CCC(=O)NC8=O)C9=O)CC7)C6)CC5)cc4)nc23)ccc1C(=O)N(C)C (stereo not drawn)
DC50 [4]: > 10000 nM
Emax [7]: 30.1%

Cc1cc(-c2c[nH]c3ncc(-c4ccc(N5CCN(CC6CCN(c7ccc8c(c7)C(=O)N(C7CCC(=O)NC7=O)C8=O)C6)CC5)cc4)nc23)ccc1C(=O)N(C)C (stereo not drawn)
DC50 [4]: 246 nM
Emax [7]: 56.6%

Cc1cc(-c2c[nH]c3ncc(-c4ccc(C5CCN(C(=O)CNc6cccc7c6C(=O)N(C6CCC(=O)NC6=O)C7=O)CC5)cc4)nc23)ccc1C(=O)N(C)C (stereo not drawn)
DC50 [4]: > 10000 nM
Emax [7]: 0.1%

Cc1cc(-c2c[nH]c3ncc(-c4ccc(C5CCN(C(=O)CCOc6cccc7c6C(=O)N(C6CCC(=O)NC6=O)C7=O)CC5)cc4)nc23)ccc1C(=O)N(C)C (stereo not drawn)
DC50 [4]: > 10000 nM
Emax [7]: 6.7%

Cc1cc(-c2c[nH]c3ncc(-c4cc(C)c5c(c4)CN(C)CC5)nc23)ccc1C(=O)N(C)C
inhibition in vivo at 25 mg/kg [9]: 16.5%
Activity [10]: Active
Activity [11]: 34.15%
Activity [12]: Active
IC50 [13]: 5.82 nM

Cc1cc(-c2c[nH]c3ncc(-c4ccc(C5CCN(C6CN(C7CN(c8ccc9c(c8)C(=O)N(C8CCC(=O)NC8=O)C9=O)C7)C6)CC5)cc4)nc23)ccc1C(=O)N(C)C (stereo not drawn)
DC50 [4]: 295 nM
Emax [7]: 58.1%

Cc1cc(-c2c[nH]c3ncc(-c4ccc(C5CCN(C6CN(C(=O)Cc7ccc(NC8CCC(=O)NC8=O)cc7)C6)CC5)cc4)nc23)ccc1C(=O)N(C)C (stereo not drawn)
DC50 [4]: > 10000 nM
Emax [7]: 38.5%

Cc1cc(-c2c[nH]c3ncc(-c4ccc(C5CCN(C6CN(C(=O)C7CCN(c8ccc(C(=O)NC9CCC(=O)NC9=O)cc8)CC7)C6)CC5)cc4)nc23)ccc1C(=O)N(C)C (stereo not drawn)
DC50 [4]: > 10000 nM
Emax [7]: 24.2%

Cc1cc(-c2c[nH]c3ncc(-c4ccc(C5CCN(c6ccc7c(c6)C(=O)N(C6CCC(=O)NC6=O)C7=O)CC5)cc4)nc23)ccc1C(=O)N(C)C (stereo not drawn)
DC50 [4]: > 10000 nM
Emax [7]: 3.4%

Cc1cc(-c2c[nH]c3ncc(-c4ccc(C5CCN(C(=O)C6CN(c7ccc8c(c7)C(=O)N(C7CCC(=O)NC7=O)C8=O)C6)CC5)cc4)nc23)ccc1C(=O)N(C)C (stereo not drawn)
DC50 [4]: > 10000 nM
Emax [7]: 42.6%

Cc1cc(-c2c[nH]c3ncc(-c4ccc(C5CCN(C6CN(C(=O)C7CN(c8ccc9c(c8)C(=O)N(C8CCC(=O)NC8=O)C9=O)C7)C6)CC5)cc4)nc23)ccc1C(=O)N(C)C (stereo not drawn)
DC50 [4]: > 10000 nM
Emax [7]: 39.4%

Cc1cc(-c2c[nH]c3ncc(-c4ccc(C5CCN(CCC6CCN(c7ccc8c(c7)C(=O)N(C7CCC(=O)NC7=O)C8=O)CC6)CC5)cc4)nc23)ccc1C(=O)N(C)C (stereo not drawn)
DC50 [4]: 1060 nM
Emax [7]: 58.5%
